Test results from US20250127904A1, “SIGLEC LIGANDS, CONJUGATES, AND METHODS OF USE THEREOF” (Osprey Biopharmaceuticals, Inc., priority 2023, published 2025).

Legend:
[1] = biological target: T1, biotinylated mouse siglec-2-Fc-Avi (Mus musculus, UniProt P35329); experiment: SPR binding to mouse siglec-2/CD22; details: steady-state analysis, read-out: Mouse CD22 affinity
T1 construct: made in house
T1 sequence (P35329 22-708 limits assumed): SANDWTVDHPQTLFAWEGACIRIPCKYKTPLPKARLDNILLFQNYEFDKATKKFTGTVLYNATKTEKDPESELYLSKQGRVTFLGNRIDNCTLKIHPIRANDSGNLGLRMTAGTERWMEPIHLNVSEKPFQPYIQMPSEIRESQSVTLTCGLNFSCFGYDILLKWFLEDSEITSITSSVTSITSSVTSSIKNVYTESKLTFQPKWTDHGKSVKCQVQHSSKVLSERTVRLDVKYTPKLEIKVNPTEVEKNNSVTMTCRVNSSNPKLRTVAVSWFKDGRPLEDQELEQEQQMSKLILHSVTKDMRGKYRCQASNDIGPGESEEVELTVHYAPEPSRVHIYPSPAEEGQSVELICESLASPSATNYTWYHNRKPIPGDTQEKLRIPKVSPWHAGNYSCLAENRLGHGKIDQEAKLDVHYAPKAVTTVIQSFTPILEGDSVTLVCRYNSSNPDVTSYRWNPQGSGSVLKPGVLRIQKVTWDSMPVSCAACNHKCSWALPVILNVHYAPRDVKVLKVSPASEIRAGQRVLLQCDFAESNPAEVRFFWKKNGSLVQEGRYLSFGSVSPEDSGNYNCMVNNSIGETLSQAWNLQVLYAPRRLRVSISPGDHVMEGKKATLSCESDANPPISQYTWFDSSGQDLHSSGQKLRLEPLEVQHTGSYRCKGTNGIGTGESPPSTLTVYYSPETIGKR
Protocol: (§1) The following proteins were used for CD22 ligand binding: biotinylated human siglec-2/CD22 protein-His-Avitag (Acro Biosystems, Cat #SI2-H82E3), biotinylated mouse siglec-2-Fc-Avi (in-house production), and recombinant cynomolgus siglec-2/CD22 His-tag (R&D systems, Cat #9864-SL-050). Prior to immobilization, CD22 proteins were treated with SialoExo (Genovis, Cat #G1-SM1-020) for 4 hours at 37° C. to remove native sialic acid residues.
(§2) Capture of biotinylated CD22 constructs was performed using a Cytiva SA chip (BR100398) on a Biacore 8K instrument. Human siglec 2 was immobilized on channels 1-4 and mouse siglec 2 on channels 5-8 on the active flow cell (2) and the reference flow cell (1) was immobilized with biotinylated human FGFR2 Fc Avi, an unrelated protein, to account for any nonspecific binding. Human siglec 2 and Mouse siglec 2 were diluted in running buffer to 20 μg/mL and injected on the active flow cell (2) for 300 seconds at 5 μL/min, yielding about 3500 RU of captured constructs.
(§3) Binding experiments of siglec-ligand conjugated proteins or Siglec ligand compounds were performed on the surfaces prepared above in 10 mM HEPES, 150 mM NaCl, 0.05% Tween-20, pH 7.5, 1% DMSO as the running buffer. Compounds were serially diluted in running buffer from 50 μM to 97.6 nM and injected over both the reference and active flow cells for 90 seconds at 30 μL/min. The compounds were then allowed to dissociate from the surface for 120 seconds. No regeneration was required as the compounds completely dissociated from the surface after 30 seconds. Solvent correction was performed using 0.5, 1, 1.5, and 2% DMSO spike into running buffer without DMSO. Data was analyzed using steady-state analysis in Biacore Insight Evaluation Software, version 3.0.

[2] = biological target: T2, biotinylated human siglec-2/CD22 protein-His-Avitag (Homo sapiens, UniProt P20273); experiment: SPR binding to human siglec-2/CD22; details: steady-state analysis, read-out: Human CD22 affinity
T2 construct: purchased Acro Biosystems SI2-H82E3
T2 sequence (P20273 20-847): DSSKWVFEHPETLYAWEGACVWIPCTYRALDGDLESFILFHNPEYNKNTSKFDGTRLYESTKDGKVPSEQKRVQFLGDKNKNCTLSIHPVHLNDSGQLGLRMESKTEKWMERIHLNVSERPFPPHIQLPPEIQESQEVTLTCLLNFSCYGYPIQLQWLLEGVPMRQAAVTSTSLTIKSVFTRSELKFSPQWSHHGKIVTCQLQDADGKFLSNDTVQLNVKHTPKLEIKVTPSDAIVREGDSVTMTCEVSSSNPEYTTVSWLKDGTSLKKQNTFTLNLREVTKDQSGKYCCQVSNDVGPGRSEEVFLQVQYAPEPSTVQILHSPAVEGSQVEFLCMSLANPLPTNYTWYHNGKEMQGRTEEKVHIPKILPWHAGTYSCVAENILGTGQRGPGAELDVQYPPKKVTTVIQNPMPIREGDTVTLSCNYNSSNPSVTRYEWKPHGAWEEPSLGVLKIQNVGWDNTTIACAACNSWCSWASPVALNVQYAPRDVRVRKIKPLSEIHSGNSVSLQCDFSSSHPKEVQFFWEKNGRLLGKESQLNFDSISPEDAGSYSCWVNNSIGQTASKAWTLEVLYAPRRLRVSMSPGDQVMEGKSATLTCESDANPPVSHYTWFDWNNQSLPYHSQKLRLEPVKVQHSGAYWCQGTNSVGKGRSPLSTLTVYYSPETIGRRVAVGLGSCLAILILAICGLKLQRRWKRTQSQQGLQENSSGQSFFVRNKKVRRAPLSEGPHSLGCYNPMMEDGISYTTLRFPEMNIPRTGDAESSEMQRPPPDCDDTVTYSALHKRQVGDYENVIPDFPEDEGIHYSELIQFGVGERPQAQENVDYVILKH
Protocol: as §1, §2, §3

[3] = biological target: recombinant cynomolgus siglec-2/CD22 His-tag (Macaca fascicularis, UniProt A0A2K5WCZ6); experiment: SPR binding to cynomolgus siglec-2/CD22; details: steady-state analysis, read-out: Cyno CD22 affinity
recombinant cynomolgus siglec-2/CD22 His-tag, sequence (A0A2K5WCZ6 entry or part of it): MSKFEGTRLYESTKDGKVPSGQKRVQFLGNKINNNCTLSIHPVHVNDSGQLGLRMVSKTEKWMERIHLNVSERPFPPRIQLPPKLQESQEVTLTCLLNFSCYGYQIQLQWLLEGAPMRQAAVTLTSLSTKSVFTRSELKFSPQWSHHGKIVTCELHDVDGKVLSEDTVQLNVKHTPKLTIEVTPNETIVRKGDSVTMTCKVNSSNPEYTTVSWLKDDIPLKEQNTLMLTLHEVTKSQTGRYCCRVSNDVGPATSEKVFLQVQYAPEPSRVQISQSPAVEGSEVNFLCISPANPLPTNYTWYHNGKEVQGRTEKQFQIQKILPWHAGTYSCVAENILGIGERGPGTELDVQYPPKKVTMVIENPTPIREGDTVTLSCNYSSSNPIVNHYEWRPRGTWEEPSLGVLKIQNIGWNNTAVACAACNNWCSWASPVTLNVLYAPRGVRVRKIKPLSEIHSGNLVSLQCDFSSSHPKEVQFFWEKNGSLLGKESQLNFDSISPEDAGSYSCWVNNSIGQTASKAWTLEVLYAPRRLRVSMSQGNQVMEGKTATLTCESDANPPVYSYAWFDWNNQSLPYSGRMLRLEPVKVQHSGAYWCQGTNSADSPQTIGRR
Protocol: as §1
Surface preparation for cyno CD22 protein consisted of amine coupling to Cytiva CM5 chip (Cytiva, Cat #BR100530) using the Cytiva amine coupling kit Type 2 (Cytiva, Cat #BR100633). Following the standard amine coupling protocols, EDC and NHS from the kit were mixed 1:1 and injected over flow cells 1 and 2. Cyno CD22 was then immobilized by injecting 10 μg/mL in Sodium Acetate, pH 5.5 onto flow cell (2) for 420 seconds at 10 uL/min, yielding approximately 2500 RU of captured protein. Any active carboxy groups were then capped with 1M Ethanolamine, pH 8.5 for 420 s on flow cells 1 and 2.
as §3

Compound | Kd [1] [nM] | Kd [2] [nM] | Kd [3] [nM]
C#CCCCCCCCCOc1ccc(CC(=O)NC[C@@H](O)[C@@H](O)[C@@H]2O[C@@](OCc3ccccc3)(C(=O)O)C[C@H](O)[C@H]2NC(=O)CO)cc1 [Compound 7, (2R,4S,5R,6R)-2-(benzyloxy)-6-((1R,2R)-3-(2-(4-(dec-9-yn-1-yloxy)phenyl)acetamido)-1,2-dihydroxypropyl)-4-hydroxy-5-(2-hydroxyacetamido)tetrahydro-2H-pyran-2-carboxylic acid] | 1000 to 10000 | 1000 to 10000 | 1000 to 10000
C#Cc1ccc(CC(=O)NC[C@@H](O)[C@@H](O)[C@@H]2O[C@@](OCc3ccc(O)cc3)(C(=O)O)C[C@H](O)[C@H]2NC(=O)CO)cc1 [Compound 3, (2R,4S,5R,6R)-6-((1R,2R)-3-(2-(4-ethynylphenyl)acetamido)-1,2-dihydroxypropyl)-4-hydroxy-5-(2-hydroxyacetamido)-2-((4-hydroxybenzyl)oxy)tetrahydro-2H-pyran-2-carboxylic acid] | 1000 to 10000 | < 1000 | < 1000
C#CCO[C@H]1C[C@](OCc2ccccc2)(C(=O)O)O[C@@H]([C@H](O)[C@H](O)CNC(=O)Cc2ccc(Cl)cc2)[C@@H]1NC(=O)CO [Compound 18, (2R,4S,5R,6R)-2-(benzyloxy)-6-((1R,2R)-3-(2-(4-chlorophenyl)acetamido)-1,2-dihydroxypropyl)-5-(2-hydroxyacetamido)-4-(prop-2-yn-1-yloxy)tetrahydro-2H-pyran-2-carboxylic acid] | 1000 to 10000 | 1000 to 10000 | 1000 to 10000
C#CCO[C@H]1C[C@](OCCCCCC(=O)O)(C(=O)O)O[C@@H]([C@H](O)[C@H](O)CNC(=O)Cc2ccc(Cl)cc2)[C@@H]1NC(=O)CO [Compound 20, (2R,4S,5R,6R)-2-((5-carboxypentyl)oxy)-6-((1R,2R)-3-(2-(4-chlorophenyl)acetamido)-1,2-dihydroxypropyl)-5-(2-hydroxyacetamido)-4-(prop-2-yn-1-yloxy)tetrahydro-2H-pyran-2-carboxylic acid] | 1000 to 10000 | 1000 to 10000 | 1000 to 10000
C#Cc1ccc(CC(=O)NC[C@@H](O)[C@@H](O)[C@@H]2O[C@@](OCCOCCOCCOC)(C(=O)O)C[C@H](O)[C@H]2NC(=O)CO)cc1 [Compound 25, (2R,4S,5R,6R)-6-((1R,2R)-3-(2-(4-ethynylphenyl)acetamido)-1,2-dihydroxypropyl)-4-hydroxy-5-(2-hydroxyacetamido)-2-(2-(2-(2-methoxyethoxy)ethoxy)ethoxy)tetrahydro-2H-pyran-2-carboxylic acid] | 1000 to 10000 | 1000 to 10000 | 1000 to 10000
C#CCOCCOCCOCCC(=O)N[C@H]1[C@H]([C@H](O)[C@H](O)CNC(=O)Cc2ccc(Cl)cc2)O[C@@](OCc2ccccc2)(C(=O)O)C[C@@H]1O [Compound 21, (2R,4S,5R,6R)-2-(benzyloxy)-6-((1R,2R)-3-(2-(4-chlorophenyl)acetamido)-1,2-dihydroxypropyl)-4-hydroxy-5-(3-(2-(2-(prop-2-yn-1-yloxy)ethoxy)ethoxy)propanamido)tetrahydro-2H-pyran-2-carboxylic acid] | > 10000 | 1000 to 10000 | 1000 to 10000
C#Cc1ccc(CC(=O)NC[C@@H](O)[C@@H](O)[C@@H]2O[C@@](OCCCCCCn3cc(COCCOC)nn3)(C(=O)O)C[C@H](O)[C@H]2NC(=O)CO)cc1 [Compound 28, (2R,4S,5R,6R)-6-((1R,2R)-3-(2-(4-ethynylphenyl)acetamido)-1,2-dihydroxypropyl)-4-hydroxy-5-(2-hydroxyacetamido)-2-((6-(4-((2-methoxyethoxy)methyl)-1H-1,2,3-triazol-1-yl)hexyl)oxy)tetrahydro-2H-pyran-2-carboxylic acid] | < 1000 | < 1000 | < 1000
CCCCCCO[C@]1(C(=O)O)C[C@H](O)[C@@H](NC(=O)CO)[C@H]([C@H](O)[C@H](O)CNC(=O)Cc2ccc(-c3cn(CCOCCOCCOCCC(=O)NCC)nn3)cc2)O1 [Compound 16, (2R,4S,5R,6R)-6-((1R,2R)-1,2-dihydroxy-3-(2-(4-(1-(12-oxo-3,6,9-trioxa-13-azapentadecyl)-1H-1,2,3-triazol-4-yl)phenyl)acetamido)propyl)-2-(hexyloxy)-4-hydroxy-5-(2-hydroxyacetamido)tetrahydro-2H-pyran-2-carboxylic acid] | < 1000 | < 1000 | < 1000
O=C(O)CCCCCCCCCCc1ccc(CC(=O)NC[C@@H](O)[C@@H](O)[C@@H]2O[C@@](OCc3ccccc3)(C(=O)O)C[C@H](O)[C@H]2NC(=O)CO)cc1 [Compound 8, (2R,4S,5R,6R)-2-(benzyloxy)-6-((1R,2R)-3-(2-(4-(10-carboxydecyl)phenyl)acetamido)-1,2-dihydroxypropyl)-4-hydroxy-5-(2-hydroxyacetamido)tetrahydro-2H-pyran-2-carboxylic acid] | < 1000 | < 1000 | 1000 to 10000
C#CCOCCCCCCCc1ccc(CC(=O)NC[C@@H](O)[C@@H](O)[C@@H]2O[C@@](OCc3ccccc3)(C(=O)O)C[C@H](O)[C@H]2NC(=O)CO)cc1 [Compound 13, (2R,4S,5R,6R)-2-(benzyloxy)-6-((1R,2R)-1,2-dihydroxy-3-(2-(4-(7-(prop-2-yn-1-yloxy)heptyl)phenyl)acetamido)propyl)-4-hydroxy-5-(2-hydroxyacetamido)tetrahydro-2H-pyran-2-carboxylic acid] | 1000 to 10000 | 1000 to 10000 | 1000 to 10000
O=C(O)CCCCCCCCC#Cc1ccc(CC(=O)NC[C@@H](O)[C@@H](O)[C@@H]2O[C@@](OCc3ccccc3)(C(=O)O)C[C@H](O)[C@H]2NC(=O)CO)cc1 [Compound 14, (2R,4S,5R,6R)-2-(benzyloxy)-6-((1R,2R)-3-(2-(4-(10-carboxydec-1-yn-1-yl)phenyl)acetamido)-1,2-dihydroxypropyl)-4-hydroxy-5-(2-hydroxyacetamido)tetrahydro-2H-pyran-2-carboxylic acid] | < 1000 | 1000 to 10000 | 1000 to 10000
